Assay results reported in patent publication US9226942B2, “Expanding hematopoietic stem cells” (priority 2010, dated 2016).

How the values were obtained:
VentX = experiment: Quantitative (RT-)PCR of VentX expression in CD34+ cells; format: cell-based, human
Excerpt: Bone marrow (BW) samples were obtained from discarded femoral head tissue after hip replacement surgery from Brigham and Women's Hospital, with institutional IRB approval. After Ficoll separation of mononuclear cells, CD34+ cells were enriched using magnetically activated cell sorting CD34^+ progenitor kit (Miltenyi Biotec). The purity of the BW CD34+ cells was over 95%, as assessed by flow cytometry as described in Rizo et al., 2008.
Total RNA was isolated by the TRIzol method, and same amount of RNA was used for first-strand cDNA synthesis with SuperSript First-Strand Synthesis System (Invitrogen) according to the manufacturer's protocol. To determine VentX mRNA level, the cDNA was then used for real-time PCR of VentX with primers: 5′-CCGTCAGCATCAAGGAGG-3′ (SEQ ID NO: 19) and 5′-CTGGACCTCTGAGAGCTGC-3′ (SEQ ID NO: 20). Real-time PCR was also performed with SYBR Green on a LightCycler® 480 system (480 Real-Time PCR System; Roche).
Briefly, the lentiviral vector pHAGE-CMV-eGFPW that expresses a shRNA targeting VentX (pHAGE-shVentX) was used for the transduction of bone marrow CD34+ cells. This lentiviral vector contains an internal ribosome entry site (IRES) that allows simultaneous expression of GFP to monitor transduction rate or for cell sorting. The corresponding DNA sequence of VentX shRNA is SEQ ID NO: 12 or 14. […]

human CD34+ cells = experiment: SR1-mediated expansion of human CD34+ cells; format: cell-based
BW CD34+ cells = experiment: Cytokine supplemented stroma-free liquid culture of CD34+ cells (cell counts, FACS); format: cell-based, human
CD34+ cells = experiment: In vitro colony-forming cell (CFC) assay; format: cell-based, human
Experimental: Assays for in vitro colony-forming cells (CFCs) were performed by plating sorted GFP positive CD34+ cells (1×10^4 per dish) in triplicates in complete methylcellulose medium (Methocult G F, H4434; Stem Cell Technologies), which contains a mixture of recombinant human cytokines (SCF, IL-3, GM-CSF, and erythropoietin). Colonies were counted after 14 days of incubation at 37° C. and classified according to standard criteria.
Human BW CD34+ cells were obtained as described in Example 1. These cells were transfected with pCS2-GFP or pCS2-GFPVentX plasmid using the Human CD34+ cell Nucleofector Kit (Lonza) as described above. GFP-positive cells were sorted by FACSAria high-speed sorter after transfected for 24 hours.

[1] = colonies counted after 14 days, vs GFP control

Row | Compound | expression of VentX in the CD34+ cells (VentX) | expansion of CD34+ cells (human CD34+ cells) | knockdown of VentX in CD34+ cells (VentX; quantitative PCR / RT-PCR) [%] | expansion of HSCs in comparison with siGFP-transfected cells (BW CD34+ cells; 2 weeks culture) [fold] | percentage of CD34+ cells (BW CD34+ cells; siRNA-transfected cells) | increase in total number of progeny cells (CD34+ cells; based on the CFC assay) [fold] | increase in formation of BFU-E/CFU-E colonies (CD34+ cells; [1]) [fold] | increase in formation of CFU-GM colonies (CD34+ cells; [1]) [fold]
1 | CC(C)n1cnc2c(NCCc3ccc(O)cc3)nc(-c3csc4ccccc34)nc21 [SR1, StemRegenin 1, reference compound] | inhibited | increased |  |  |  |  |  | 
2 | siVentX: short oligonucleotides targeting VentX, siRNA SEQ ID NO: 5 (UUCAGAAUCGCCGCAUGAAACACAAACGG) (listed as RNA, chemistry not given here) |  |  | ~70 | ~2 | an increase | ~2 | ~2 | ~2
